# Test: Thermal stability of IPBC in lubricant mixtures, oven at 180° C., amount determined by HPLC
# Type: physicochemical
# Experimental: Except for example 2 wherein 100% IPBC was used, the antimicrobial agent was admixed with the lubricating agent at room temperature overnight in a roller mixer. Samples of the resulting mixtures were then placed in a conventional oven at 180° C. for the time specified below (5 minutes and 132 minutes). The amount of antimicrobial agent in the sample, initially and after heating, was determined by HPLC. All samples were contained in dark bottles and covered with aluminum foil during heating.
# The samples were prepared and tested as described in Examples 1-5.
structure (smiles),measurement,setting,value
"CCCCNC(=O)OCC#CI [Example 2, 3-iodo-2-propynyl butyl carbamate]",% Biocide/ 5 min.,after 5 minutes in oven at 180° C.,83%
same,% Biocide/ 132 min.,after 132 minutes in oven at 180° C.,0%
same,% Initial Biocide,"before heating, by weight",100%

# Reference: patent US20060029649A1, “Stabilized antimicrobial agents” (priority 2004, published 2006)
